Test results from publication PMC5786788, “Antimicrobial Octapeptin C4 Analogues Active against Cryptococcus Species” (Antimicrobial Agents and Chemotherapy, 2018).
In brackets after ≈: the same amount, converted by molar mass. Where two headings read alike, the source gives them in different places.

What was measured:
[1] = test system: C. neoformans var. gattii; test: microbe, parasite or virus in culture
Procedure: (§1) The MICs of the yeast strains for PMB, PME, and octapeptin C4 and its derivatives were determined in accordance with CLSI M27-A2 guidelines using YNB (Becton Dickinson, USA) medium supplemented with 10 mM ammonium sulfate and 2% glucose, a final inoculum concentration of 1.5 × 10^3 to 2.0 × 10^3 cells/ml, and incubation at 35°C for 72 h ([39]). […] The MICs for PMB, PME, and octapeptin C4 for A. fumigatus were determined in accordance with the CLSI M38-A2 guidelines ([40]) using synthetic RPMI 1640 medium (with glutamine, without bicarbonate and with phenol red; Life Technologies, USA). The final inoculum concentration was 0.4 × 10^4 to 5 × 10^4 cells/ml, with incubation at 35°C for 48 h. […] All assays were completed in triplicate. Fluconazole was used as a positive control where the MIC was determined at both 50% growth (in accordance with CLSI M27-A2 guidelines) and when there was a “no visible growth” reading.

[2] = test system: C. neoformans var. neoformans; test: microbe, parasite or virus in culture; conditions: Cryptococcus neoformans
Procedure: as §1

OC(Cn1cncn1)(Cn1cncn1)c1ccc(F)cc1F [Fluconazole, fluconazole]
MIC ([1]; Cryptococcus neoformans, ATCC34882, strain ATCC 34882, no visible growth): 6.25 µg/mL (≈ 20.4 µM) | MIC ([1]; Cryptococcus neoformans, read-out: MIC-2, strain 93/980 (CSF France), 50% fungal growth): 1.56 µg/mL (≈ 5.09 µM) | MIC ([1]; Cryptococcus neoformans, read-out: MIC-2, strain B5742 (VGIV CSF India), 50% fungal growth): 3.13 µg/mL (≈ 10.2 µM) | MIC ([1]; Cryptococcus neoformans, read-out: MIC-2, strain R266 (Vancouver Island), 50% fungal growth): 6.25 µg/mL (≈ 20.4 µM) | MIC ([1]; Cryptococcus neoformans, read-out: MIC-2, strain R267 (Vancouver Island), 50% fungal growth): 25 µg/mL (≈ 81.6 µM) | MIC ([1]; Cryptococcus neoformans, read-out: MIC-2, strain R268 (Vancouver Island), 50% fungal growth): 0.78 µg/mL (≈ 2.55 µM) | MIC ([1]; Cryptococcus neoformans, read-out: MIC-2, strain R269 (Vancouver Island), 50% fungal growth): 3.13 µg/mL (≈ 10.2 µM) | MIC ([1]; Cryptococcus neoformans, read-out: MIC-2, strain R270 (Vancouver Island), 50% fungal growth): 3.13 µg/mL (≈ 10.2 µM) | MIC ([1]; Cryptococcus neoformans, strain R266 (Vancouver Island), no visible growth): 12.5 µg/mL (≈ 40.8 µM) | MIC ([1]; Cryptococcus neoformans, strain R267 (Vancouver Island), no visible growth): < 25 µg/mL | MIC ([1]; Cryptococcus neoformans, strain R268 (Vancouver Island), no visible growth): 1.56 µg/mL (≈ 5.09 µM) | MIC ([1]; Cryptococcus neoformans, strain R269 (Vancouver Island), no visible growth): 12.5 µg/mL (≈ 40.8 µM) | MIC ([1]; Cryptococcus neoformans, strain R270 (Vancouver Island), no visible growth): 6.25 µg/mL (≈ 20.4 µM) | MIC ([1]; read-out: MIC-2, strain 96/1120-1 (Brain HIV2 France), 50% fungal growth): 3.13 µg/mL (≈ 10.2 µM) | MIC ([1]; read-out: MIC-2, strain 96/1120-2 (CSF HIV2 France), 50% fungal growth): 6.25 µg/mL (≈ 20.4 µM) | MIC ([1]; read-out: MIC-2, strain B5748 (VGIV HIV India), 50% fungal growth): 3.13 µg/mL (≈ 10.2 µM) | MIC ([1]; strain 96/1120-1 (Brain HIV2 France), no visible growth): 25 µg/mL (≈ 81.6 µM) | MIC ([1]; strain 96/1120-2 (CSF HIV2 France), no visible growth): 25 µg/mL (≈ 81.6 µM) | MIC ([1]; strain B5748 (VGIV HIV India), no visible growth): 12.5 µg/mL (≈ 40.8 µM) | MIC ([2]; read-out: MIC-2, strain WM 01.127 (USA), 50% fungal growth): 6.25 µg/mL (≈ 20.4 µM) | MIC ([2]; read-out: MIC-2, strain WM 02.141 (Russia), 50% fungal growth): 3.13 µg/mL (≈ 10.2 µM) | MIC ([2]; read-out: MIC-2, strain WM 02.142 (Russia), 50% fungal growth): 6.25 µg/mL (≈ 20.4 µM) | MIC ([2]; read-out: MIC-2, strain WM 02.143 (Russia), 50% fungal growth): 6.25 µg/mL (≈ 20.4 µM) | MIC ([2]; read-out: MIC-2, strain WM 02.37 (Canada), 50% fungal growth): 6.25 µg/mL (≈ 20.4 µM) | MIC ([2]; read-out: MIC-2, strain WM 02.52 (Canada), 50% fungal growth): 3.13 µg/mL (≈ 10.2 µM) | MIC ([2]; read-out: MIC-2, strain WM 04.168 (Chile), 50% fungal growth): 6.25 µg/mL (≈ 20.4 µM) | MIC ([2]; read-out: MIC-2, strain WM 04.171 (Thailand, environmental), 50% fungal growth): 6.25 µg/mL (≈ 20.4 µM) | MIC ([2]; read-out: MIC-2, strain WM 05.467 (Brazil, environmental), 50% fungal growth): 6.25 µg/mL (≈ 20.4 µM) | MIC ([2]; read-out: MIC-2, strain WM 05.515 (Peru), 50% fungal growth): 1.56 µg/mL (≈ 5.09 µM) | MIC ([2]; read-out: MIC-2, strain WM 09.109 (Italy, environmental), 50% fungal growth): 3.13 µg/mL (≈ 10.2 µM) | MIC ([2]; read-out: MIC-2, strain WM 09.112 (USA), 50% fungal growth): 3.13 µg/mL (≈ 10.2 µM) | MIC ([2]; read-out: MIC-2, strain WM 10.119 (Australia), 50% fungal growth): 3.13 µg/mL (≈ 10.2 µM) | MIC ([2]; read-out: MIC-2, strain WM 629 (Australia), 50% fungal growth): 3.13 µg/mL (≈ 10.2 µM) | MIC ([2]; read-out: MIC-2, strain WM 1706 (Argentina), 50% fungal growth): 6.25 µg/mL (≈ 20.4 µM) | MIC ([2]; read-out: MIC-2, strain WM 1740 (Chile), 50% fungal growth): 3.13 µg/mL (≈ 10.2 µM) | MIC ([2]; read-out: MIC-2, strain WM 2207 (USA, environmental), 50% fungal growth): 12.5 µg/mL (≈ 40.8 µM) | MIC ([2]; read-out: MIC-2, strain WM 2242 (USA), 50% fungal growth): 1.56 µg/mL (≈ 5.09 µM) | MIC ([2]; read-out: MIC-2, strain WM 2530 (USA), 50% fungal growth): 3.13 µg/mL (≈ 10.2 µM) | MIC ([2]; strain WM 01.127 (USA), no visible growth): 12.5 µg/mL (≈ 40.8 µM) | MIC ([2]; strain WM 02.141 (Russia), no visible growth): 6.25 µg/mL (≈ 20.4 µM) | MIC ([2]; strain WM 02.142 (Russia), no visible growth): 12.5 µg/mL (≈ 40.8 µM) | MIC ([2]; strain WM 02.143 (Russia), no visible growth): 12.5 µg/mL (≈ 40.8 µM) | MIC ([2]; strain WM 02.37 (Canada), no visible growth): 25 µg/mL (≈ 81.6 µM) | MIC ([2]; strain WM 02.52 (Canada), no visible growth): 6.25 µg/mL (≈ 20.4 µM) | MIC ([2]; strain WM 04.168 (Chile), no visible growth): 12.5 µg/mL (≈ 40.8 µM) | MIC ([2]; strain WM 04.171 (Thailand, environmental), no visible growth): 6.25 µg/mL (≈ 20.4 µM) | MIC ([2]; strain WM 05.467 (Brazil, environmental), no visible growth): 12.5 µg/mL (≈ 40.8 µM) | MIC ([2]; strain WM 05.515 (Peru), no visible growth): 6.25 µg/mL (≈ 20.4 µM) | MIC ([2]; strain WM 09.109 (Italy, environmental), no visible growth): 6.25 µg/mL (≈ 20.4 µM) | MIC ([2]; strain WM 09.112 (USA), no visible growth): 12.5 µg/mL (≈ 40.8 µM) | MIC ([2]; strain WM 10.119 (Australia), no visible growth): 6.25 µg/mL (≈ 20.4 µM) | MIC ([2]; strain WM 629 (Australia), no visible growth): 6.25 µg/mL (≈ 20.4 µM) | MIC ([2]; strain WM 1706 (Argentina), no visible growth): 12.5 µg/mL (≈ 40.8 µM) | MIC ([2]; strain WM 1740 (Chile), no visible growth): 6.25 µg/mL (≈ 20.4 µM) | MIC ([2]; strain WM 2207 (USA, environmental), no visible growth): 25 µg/mL (≈ 81.6 µM) | MIC ([2]; strain WM 2242 (USA), no visible growth): 3.13 µg/mL (≈ 10.2 µM) | MIC ([2]; strain WM 2530 (USA), no visible growth): 6.25 µg/mL (≈ 20.4 µM)
